Test results as given in US20240246942A1, “KINASE INHIBITORS FOR THE TREATMENT OF NEURODEGENERATIVE DISEASES” (priority 2020, published 2024).

Key:
Assay in all cases: biochemical
[1] = target: T1, panel of 374 wild-type kinases (Homo sapiens, UniProt Q9H422); conditions: read-out: % Enzyme Activity (relative to DMSO controls), HIPK3
T1 construct: purchased Reaction Biology Corporation

[2] = target: T2, panel of 374 wild-type kinases (Homo sapiens, UniProt O75582); conditions: read-out: % Enzyme Activity (relative to DMSO controls), MSK1/RPS6KA5
T2 construct: purchased Reaction Biology Corporation
T2 sequence (O75582 whole entry): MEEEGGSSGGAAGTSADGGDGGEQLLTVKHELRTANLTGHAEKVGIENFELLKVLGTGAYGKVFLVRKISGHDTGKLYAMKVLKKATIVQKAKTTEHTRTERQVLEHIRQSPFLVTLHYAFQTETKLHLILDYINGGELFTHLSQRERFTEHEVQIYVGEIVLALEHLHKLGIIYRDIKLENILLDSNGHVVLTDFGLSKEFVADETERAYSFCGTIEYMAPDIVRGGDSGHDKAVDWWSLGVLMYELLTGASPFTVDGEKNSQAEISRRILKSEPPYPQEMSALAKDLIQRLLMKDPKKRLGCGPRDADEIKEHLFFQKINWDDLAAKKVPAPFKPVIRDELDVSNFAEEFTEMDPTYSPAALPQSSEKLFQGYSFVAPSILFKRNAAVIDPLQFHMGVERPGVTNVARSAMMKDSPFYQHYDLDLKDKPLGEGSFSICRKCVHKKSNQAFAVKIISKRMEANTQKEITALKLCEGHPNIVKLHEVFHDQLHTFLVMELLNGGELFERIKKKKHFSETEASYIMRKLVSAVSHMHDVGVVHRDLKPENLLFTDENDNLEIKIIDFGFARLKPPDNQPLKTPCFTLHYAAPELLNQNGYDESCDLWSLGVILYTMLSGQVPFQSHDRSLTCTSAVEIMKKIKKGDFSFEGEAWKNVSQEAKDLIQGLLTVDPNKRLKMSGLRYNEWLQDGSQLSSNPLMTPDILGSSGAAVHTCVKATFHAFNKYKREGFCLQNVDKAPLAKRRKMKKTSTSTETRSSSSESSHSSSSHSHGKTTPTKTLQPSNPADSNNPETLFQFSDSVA

[3] = target: T3, panel of 374 wild-type kinases (Homo sapiens, UniProt P42681); conditions: read-out: % Enzyme Activity (relative to DMSO controls), kinase TXK
T3 construct: purchased Reaction Biology Corporation
T3 sequence (P42681 1-527): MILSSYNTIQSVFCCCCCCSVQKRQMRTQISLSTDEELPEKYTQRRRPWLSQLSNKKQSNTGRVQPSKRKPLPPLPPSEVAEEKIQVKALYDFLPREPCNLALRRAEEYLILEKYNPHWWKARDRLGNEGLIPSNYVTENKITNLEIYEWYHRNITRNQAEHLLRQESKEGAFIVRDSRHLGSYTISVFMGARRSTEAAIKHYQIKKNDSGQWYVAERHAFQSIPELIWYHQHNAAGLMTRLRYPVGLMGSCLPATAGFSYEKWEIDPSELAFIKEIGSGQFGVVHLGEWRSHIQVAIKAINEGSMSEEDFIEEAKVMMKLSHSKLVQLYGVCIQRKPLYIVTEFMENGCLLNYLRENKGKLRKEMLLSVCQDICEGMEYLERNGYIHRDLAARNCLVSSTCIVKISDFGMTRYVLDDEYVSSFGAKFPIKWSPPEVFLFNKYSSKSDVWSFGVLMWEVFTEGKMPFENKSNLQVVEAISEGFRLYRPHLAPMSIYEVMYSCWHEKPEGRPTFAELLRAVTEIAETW

[4] = target: T4, panel of 374 wild-type kinases (Homo sapiens, UniProt P29597); conditions: read-out: % Enzyme Activity (relative to DMSO controls), kinase TYK2
T4 construct: purchased Reaction Biology Corporation
T4 sequence (P29597 whole entry): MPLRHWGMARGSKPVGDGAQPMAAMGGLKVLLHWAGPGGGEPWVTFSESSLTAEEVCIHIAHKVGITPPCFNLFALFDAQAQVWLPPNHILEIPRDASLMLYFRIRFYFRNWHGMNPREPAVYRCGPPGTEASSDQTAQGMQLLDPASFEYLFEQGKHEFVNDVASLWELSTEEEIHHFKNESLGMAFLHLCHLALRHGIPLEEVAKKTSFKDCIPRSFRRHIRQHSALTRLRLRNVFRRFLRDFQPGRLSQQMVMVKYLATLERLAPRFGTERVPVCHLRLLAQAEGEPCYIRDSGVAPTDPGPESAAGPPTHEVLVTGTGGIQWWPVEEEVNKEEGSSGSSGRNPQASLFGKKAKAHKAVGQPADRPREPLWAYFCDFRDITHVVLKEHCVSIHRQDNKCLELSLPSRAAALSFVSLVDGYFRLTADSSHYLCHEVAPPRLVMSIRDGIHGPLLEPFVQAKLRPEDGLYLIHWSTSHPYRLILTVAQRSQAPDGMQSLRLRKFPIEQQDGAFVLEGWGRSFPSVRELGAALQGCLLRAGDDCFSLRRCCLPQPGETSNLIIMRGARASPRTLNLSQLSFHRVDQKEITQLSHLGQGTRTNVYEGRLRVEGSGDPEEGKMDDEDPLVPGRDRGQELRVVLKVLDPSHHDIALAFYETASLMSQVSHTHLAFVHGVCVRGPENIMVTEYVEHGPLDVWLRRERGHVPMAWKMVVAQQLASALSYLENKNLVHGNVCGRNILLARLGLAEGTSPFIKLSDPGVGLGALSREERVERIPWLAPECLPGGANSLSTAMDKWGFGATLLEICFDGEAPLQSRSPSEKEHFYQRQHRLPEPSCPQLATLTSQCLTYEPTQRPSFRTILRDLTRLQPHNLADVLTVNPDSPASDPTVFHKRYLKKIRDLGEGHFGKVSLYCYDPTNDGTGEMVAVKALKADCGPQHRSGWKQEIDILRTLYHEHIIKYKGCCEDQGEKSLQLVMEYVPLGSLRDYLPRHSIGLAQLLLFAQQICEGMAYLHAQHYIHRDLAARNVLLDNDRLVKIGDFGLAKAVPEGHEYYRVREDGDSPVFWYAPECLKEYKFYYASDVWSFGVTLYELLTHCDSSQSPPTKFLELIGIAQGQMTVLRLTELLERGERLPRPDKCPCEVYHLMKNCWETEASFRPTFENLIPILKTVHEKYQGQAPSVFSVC

[5] = target: T5, panel of 374 wild-type kinases (Homo sapiens, UniProt Q9NYY3); conditions: read-out: % Enzyme Activity (relative to DMSO controls), kinase PLK2
T5 construct: purchased Reaction Biology Corporation

[6] = target: T6, panel of 374 wild-type kinases (Homo sapiens, UniProt Q99759); conditions: read-out: % Enzyme Activity (relative to DMSO controls), MEKK3
T6 construct: purchased Reaction Biology Corporation
T6 sequence (Q99759 1-626): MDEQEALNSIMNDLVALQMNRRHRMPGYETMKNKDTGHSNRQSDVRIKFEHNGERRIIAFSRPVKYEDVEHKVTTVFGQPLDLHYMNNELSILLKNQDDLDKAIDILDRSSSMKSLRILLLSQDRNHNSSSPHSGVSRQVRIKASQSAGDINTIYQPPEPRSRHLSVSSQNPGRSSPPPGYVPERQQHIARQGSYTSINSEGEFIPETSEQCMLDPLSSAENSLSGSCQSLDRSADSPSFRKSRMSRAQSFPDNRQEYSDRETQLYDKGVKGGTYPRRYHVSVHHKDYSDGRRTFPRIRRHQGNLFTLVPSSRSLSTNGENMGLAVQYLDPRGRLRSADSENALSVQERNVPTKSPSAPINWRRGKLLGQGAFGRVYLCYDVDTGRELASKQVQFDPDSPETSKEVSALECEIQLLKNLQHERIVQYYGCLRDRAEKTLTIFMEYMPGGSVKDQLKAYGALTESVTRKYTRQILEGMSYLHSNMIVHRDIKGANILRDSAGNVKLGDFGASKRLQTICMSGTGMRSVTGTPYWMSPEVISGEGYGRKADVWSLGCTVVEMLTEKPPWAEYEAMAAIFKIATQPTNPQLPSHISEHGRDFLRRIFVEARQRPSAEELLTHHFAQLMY

[7] = target: T7, panel of 374 wild-type kinases (Homo sapiens, UniProt Q04759); conditions: read-out: % Enzyme Activity (relative to DMSO controls), kinase PKCtheta
T7 construct: purchased Reaction Biology Corporation

[8] = target: T8, panel of 374 wild-type kinases (Homo sapiens, UniProt O75676); conditions: read-out: % Enzyme Activity (relative to DMSO controls), MSK2/RPS6KA4
T8 construct: purchased Reaction Biology Corporation
T8 sequence (O75676 whole entry): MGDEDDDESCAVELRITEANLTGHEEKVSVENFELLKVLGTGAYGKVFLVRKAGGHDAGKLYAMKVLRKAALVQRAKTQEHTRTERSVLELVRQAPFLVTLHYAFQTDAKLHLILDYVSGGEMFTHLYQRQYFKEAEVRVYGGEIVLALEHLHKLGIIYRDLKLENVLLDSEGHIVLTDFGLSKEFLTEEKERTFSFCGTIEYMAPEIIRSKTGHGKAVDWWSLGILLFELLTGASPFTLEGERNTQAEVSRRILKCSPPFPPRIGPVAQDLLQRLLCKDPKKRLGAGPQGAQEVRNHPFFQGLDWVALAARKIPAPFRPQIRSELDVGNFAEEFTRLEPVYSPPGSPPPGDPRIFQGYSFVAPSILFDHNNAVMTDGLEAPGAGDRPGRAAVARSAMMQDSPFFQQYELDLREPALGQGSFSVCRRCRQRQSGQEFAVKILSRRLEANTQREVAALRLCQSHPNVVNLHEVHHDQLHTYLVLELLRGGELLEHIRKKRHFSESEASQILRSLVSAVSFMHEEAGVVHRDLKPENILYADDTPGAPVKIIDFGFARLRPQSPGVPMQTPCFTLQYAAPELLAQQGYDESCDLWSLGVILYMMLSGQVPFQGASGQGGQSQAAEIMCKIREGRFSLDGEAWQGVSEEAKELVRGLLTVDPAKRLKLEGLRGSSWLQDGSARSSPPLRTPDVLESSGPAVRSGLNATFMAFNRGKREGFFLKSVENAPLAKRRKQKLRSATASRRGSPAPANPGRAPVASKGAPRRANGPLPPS

[9] = target: T9, panel of 374 wild-type kinases (Homo sapiens, UniProt Q13882); conditions: read-out: % Enzyme Activity (relative to DMSO controls), BRK
T9 construct: purchased Reaction Biology Corporation
T9 sequence (Q13882 whole entry): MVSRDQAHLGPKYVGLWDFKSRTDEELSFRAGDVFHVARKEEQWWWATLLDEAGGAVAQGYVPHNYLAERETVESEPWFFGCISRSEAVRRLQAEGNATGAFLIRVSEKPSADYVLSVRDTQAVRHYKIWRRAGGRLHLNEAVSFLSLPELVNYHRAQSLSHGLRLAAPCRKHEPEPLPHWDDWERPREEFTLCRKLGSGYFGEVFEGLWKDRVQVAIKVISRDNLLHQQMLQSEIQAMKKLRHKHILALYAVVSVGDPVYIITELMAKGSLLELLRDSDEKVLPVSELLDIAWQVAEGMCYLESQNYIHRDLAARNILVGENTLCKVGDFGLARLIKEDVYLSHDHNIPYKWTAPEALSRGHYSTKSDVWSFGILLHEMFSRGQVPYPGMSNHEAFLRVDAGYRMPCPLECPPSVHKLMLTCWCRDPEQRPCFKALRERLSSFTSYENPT

[10] = target: T10, panel of 374 wild-type kinases (Homo sapiens, UniProt Q6PHR2); conditions: read-out: % Enzyme Activity (relative to DMSO controls), kinase ULK3
T10 construct: purchased Reaction Biology Corporation
T10 sequence (Q6PHR2 1-472): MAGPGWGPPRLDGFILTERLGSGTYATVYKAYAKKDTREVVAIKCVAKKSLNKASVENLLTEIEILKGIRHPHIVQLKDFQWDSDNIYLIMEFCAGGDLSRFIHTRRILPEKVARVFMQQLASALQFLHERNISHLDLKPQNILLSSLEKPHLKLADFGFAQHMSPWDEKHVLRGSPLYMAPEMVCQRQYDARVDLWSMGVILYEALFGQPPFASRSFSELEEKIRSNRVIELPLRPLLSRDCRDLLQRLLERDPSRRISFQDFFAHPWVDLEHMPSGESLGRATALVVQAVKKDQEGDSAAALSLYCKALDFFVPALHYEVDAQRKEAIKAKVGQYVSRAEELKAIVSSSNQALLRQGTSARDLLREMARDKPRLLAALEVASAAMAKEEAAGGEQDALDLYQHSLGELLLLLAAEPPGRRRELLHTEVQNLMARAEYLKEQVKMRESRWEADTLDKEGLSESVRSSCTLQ

[11] = target: T11, panel of 374 wild-type kinases (Homo sapiens, UniProt Q06187); conditions: read-out: % Enzyme Activity (relative to DMSO controls), BTK
T11 construct: purchased Reaction Biology Corporation
T11 sequence (Q06187 whole entry): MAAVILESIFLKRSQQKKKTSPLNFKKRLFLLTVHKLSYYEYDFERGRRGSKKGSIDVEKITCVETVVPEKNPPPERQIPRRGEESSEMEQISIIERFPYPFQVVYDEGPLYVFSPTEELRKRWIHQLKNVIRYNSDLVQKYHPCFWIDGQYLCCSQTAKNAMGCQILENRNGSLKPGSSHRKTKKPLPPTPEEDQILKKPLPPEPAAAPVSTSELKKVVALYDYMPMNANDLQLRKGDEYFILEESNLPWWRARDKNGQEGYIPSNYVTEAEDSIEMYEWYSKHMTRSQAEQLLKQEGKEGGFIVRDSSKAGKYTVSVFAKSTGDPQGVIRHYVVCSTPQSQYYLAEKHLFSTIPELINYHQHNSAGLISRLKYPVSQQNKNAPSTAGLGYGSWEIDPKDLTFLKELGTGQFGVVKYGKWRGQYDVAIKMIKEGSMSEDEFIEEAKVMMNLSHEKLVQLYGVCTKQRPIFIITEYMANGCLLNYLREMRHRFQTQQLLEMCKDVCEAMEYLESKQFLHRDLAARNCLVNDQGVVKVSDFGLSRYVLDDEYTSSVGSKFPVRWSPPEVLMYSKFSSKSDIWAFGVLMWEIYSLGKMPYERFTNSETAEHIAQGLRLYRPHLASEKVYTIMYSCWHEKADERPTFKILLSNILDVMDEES

T1 sequence (Q9H422 whole entry): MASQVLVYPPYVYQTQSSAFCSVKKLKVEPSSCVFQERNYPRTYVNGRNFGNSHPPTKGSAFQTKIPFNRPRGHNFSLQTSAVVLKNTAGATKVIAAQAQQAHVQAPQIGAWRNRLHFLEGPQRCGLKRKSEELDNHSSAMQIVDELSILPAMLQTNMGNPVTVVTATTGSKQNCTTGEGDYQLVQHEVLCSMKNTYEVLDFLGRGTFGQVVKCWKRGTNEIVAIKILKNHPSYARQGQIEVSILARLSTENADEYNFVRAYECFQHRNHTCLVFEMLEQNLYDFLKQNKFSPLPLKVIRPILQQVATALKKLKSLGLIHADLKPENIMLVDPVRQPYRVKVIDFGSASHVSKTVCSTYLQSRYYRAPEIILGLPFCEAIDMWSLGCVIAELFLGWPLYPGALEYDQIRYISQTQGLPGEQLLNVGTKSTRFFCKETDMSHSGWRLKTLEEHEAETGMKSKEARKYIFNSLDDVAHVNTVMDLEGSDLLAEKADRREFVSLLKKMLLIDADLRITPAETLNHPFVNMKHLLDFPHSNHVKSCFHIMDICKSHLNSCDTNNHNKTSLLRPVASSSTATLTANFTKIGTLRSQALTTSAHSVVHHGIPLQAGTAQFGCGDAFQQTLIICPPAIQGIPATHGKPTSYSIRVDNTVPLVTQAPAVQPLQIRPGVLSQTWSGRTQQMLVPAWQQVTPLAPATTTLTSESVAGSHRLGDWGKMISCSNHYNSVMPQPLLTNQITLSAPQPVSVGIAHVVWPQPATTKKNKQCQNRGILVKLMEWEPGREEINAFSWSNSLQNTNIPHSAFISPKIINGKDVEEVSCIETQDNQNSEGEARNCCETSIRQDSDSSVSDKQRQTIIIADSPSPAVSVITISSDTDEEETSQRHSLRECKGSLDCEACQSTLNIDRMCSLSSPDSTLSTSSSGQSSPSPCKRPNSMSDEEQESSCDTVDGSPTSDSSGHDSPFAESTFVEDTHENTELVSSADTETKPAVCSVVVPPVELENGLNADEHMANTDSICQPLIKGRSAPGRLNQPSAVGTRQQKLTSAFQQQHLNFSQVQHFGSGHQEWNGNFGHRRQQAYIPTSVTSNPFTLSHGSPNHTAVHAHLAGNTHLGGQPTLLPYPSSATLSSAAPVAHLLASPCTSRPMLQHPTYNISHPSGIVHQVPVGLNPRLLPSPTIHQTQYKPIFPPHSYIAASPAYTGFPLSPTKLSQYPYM

| Structure (SMILES) | remaining activity at 5 µM [1] | remaining activity at 5 µM [2] | remaining activity at 5 µM [3] | remaining activity at 5 µM [4] | remaining activity at 5 µM [5] | remaining activity at 5 µM [6] | remaining activity at 5 µM [7] | remaining activity at 5 µM [8] | remaining activity at 5 µM [9] | remaining activity at 5 µM [10] | remaining activity at 5 µM [11] | other results |
| --- | --- | --- | --- | --- | --- | --- | --- | --- | --- | --- | --- | --- |
| O=C(Nc1cnn(-c2csc(C(=O)NC3COC3)c2)c1)Nc1c(F)cccc1Cl [Compound 25, 4-(4-(3-(2-chloro-6-fluorophenyl)ureido)-1H-pyrazol-1-yl)-N-(oxetan-3-yl)thiophene-2-carboxamide] | 98.8% | 104% | 90.8% | 89.3% | 100% | 81.9% | 94.7% | 99.8% | 85.7% | 76.6% | 89.3% |  |
| O=C(Nc1cnn(-c2csc(C(=O)NC3COC3)c2)c1)Nc1ccccc1Cl [Compound 17, 4-(4-(3-(2-chlorophenyl)ureido)-1H-pyrazol-1-yl)-N-(oxetan-3-yl)thiophene-2-carboxamide] | 97.6% | 89.5% | 89.8% | 95.9% | 86% | 113% | 114% | 90.7% | 118% | 111% | 92.6% |  |
| Cc1sc(C(=O)NC2COC2)cc1-n1cc(NC(=O)Nc2c(F)cccc2Cl)cn1 [Compound 27, 4-(4-(3-(2-chloro-6-fluorophenyl)ureido)-1H-pyrazol-1-yl)-5-methyl-N-(oxetan-3-yl)thiophene-2-carboxamide] |  |  |  |  |  |  |  |  |  |  |  | remaining activity at 10 µM ([1]; 10 uM): 88.5%; remaining activity at 10 µM ([2]; 10 uM): 111%; remaining activity at 10 µM ([3]; 10 uM): 76.7%; remaining activity at 10 µM ([4]; 10 uM): 114%; remaining activity at 10 µM ([5]; 10 uM): 95.2%; remaining activity at 10 µM ([6]; 10 uM): 113%; remaining activity at 10 µM ([7]; 10 uM): 96.9%; remaining activity at 10 µM ([8]; 10 uM): 105%; remaining activity at 10 µM ([9]; 10 uM): 78.9%; remaining activity at 10 µM ([10]; 10 uM): 105%; remaining activity at 10 µM ([11]; 10 uM): 87.6% |
